From patent US10570129B2 (Zoetis Services LLC, priority 2015, dated 2020)

Tests used:
Haemonchus contortus L3 = assay: microbe, parasite or virus in culture; type: cell-based; conditions: Haemonchus contortus, 96 h, read-out: HcL3 Minimal Effective Concentration (MEC)
D. immitis microfilariae = assay: Dirofilaria immitis, microfilariae (DiMF) in vitro motility assay; type: cell-based; conditions: Dirofilaria immitis, 72 h, read-out: DiMF minimally effective dose (MEC)

Structure (SMILES)	minimal effective concentration (Haemonchus contortus L3)	minimal effective concentration (D. immitis microfilariae)
O=C(NCc1ccnc(Cl)c1)n1c2c(c3ccc(OC(F)(F)F)cc31)CN(C/C=C/c1c(F)cc(F)cc1F)CC2 [Example 341, (E)-N-((2-chloropyridin-4-yl)methyl)-7-(trifluoromethoxy)-2-(3-(2,4,6-trifluorophenyl)allyl)-1,2,3,4-tetrahydro-5H-pyrido[4,3-b]indole-5-carboxamide]	3.3 µM	5.7 µM
O=C(NCc1ccnc(Cl)c1)n1c2c(c3ccc(OC(F)(F)F)cc31)CN(C/C=C/c1ccc(C(F)(F)F)cn1)CC2 [Example 342, (E)-N-((2-chloropyridin-4-yl)methyl)-7-(trifluoromethoxy)-2-(3-(5-(trifluoromethyl)pyridin-2-yl)allyl)-1,2,3,4-tetrahydro-5H-pyrido[4,3-b]indole-5-carboxamide]	1.8 µM	10 µM
O=C(NCc1ccnc(Cl)c1)n1c2c(c3c(OC(F)(F)F)cccc31)CN(C/C=C/c1ccc(C(F)(F)F)cn1)CC2 [Example 343, (E)-N-((2-chloropyridin-4-yl)methyl)-9-(trifluoromethoxy)-2-(3-(5-(trifluoromethyl)pyridin-2-yl)allyl)-1,2,3,4-tetrahydro-5H-pyrido[4,3-b]indole-5-carboxamide]	33 µM	3.3 µM
N#Cc1ccc(/C=C/CN2CCc3c(c4ccc(OC(F)(F)F)cc4n3C(=O)NCc3ccnc(Cl)c3)C2)cc1F [Example 345, (E)-N-((2-chloropyridin-4-yl)methyl)-2-(3-(4-cyano-3-fluorophenyl)allyl)-7-(trifluoromethoxy)-1,2,3,4-tetrahydro-5H-pyrido[4,3-b]indole-5-carboxamide]	0.5 µM	18.2 µM
O=C(NCc1ccnc(Cl)c1)n1c2c(c3ccc(OC(F)(F)F)cc31)CN(C/C=C/c1ccc(F)cc1Cl)CC2 [Example 346, (E)-2-(3-(2-chloro-4-fluorophenyl)allyl)-N-((2-chloropyridin-4-yl)methyl)-7-(trifluoromethoxy)-1,2,3,4-tetrahydro-5H-pyrido[4,3-b]indole-5-carboxamide]	0.5 µM	1.8 µM
O=C(NCc1ccnc(Cl)c1)n1c2c(c3ccc(OC(F)(F)F)cc31)CN(C/C=C/c1ccc(F)cc1F)CC2 [Example 347, (E)-N-((2-chloropyridin-4-yl)methyl)-2-(3-(2,4-difluorophenyl)allyl)-7-(trifluoromethoxy)-1,2,3,4-tetrahydro-5H-pyrido[4,3-b]indole-5-carboxamide]	2.4 µM	2.4 µM
O=C(NCc1ccnc(Cl)c1)n1c2c(c3ccc(OC(F)(F)F)cc31)CN(C/C=C/c1ccc(F)c(Cl)c1)CC2 [Example 348, (E)-2-(3-(3-chloro-4-fluorophenyl)allyl)-N-((2-chloropyridin-4-yl)methyl)-7-(trifluoromethoxy)-1,2,3,4-tetrahydro-5H-pyrido[4,3-b]indole-5-carboxamide]	1 µM	24.5 µM
O=C(NCc1ccnc(Cl)c1)n1c2c(c3ccc(OC(F)(F)F)cc31)CN(C/C=C/c1cc(F)c(F)c(F)c1)CC2 [Example 350, (E)-N-((2-chloropyridin-4-yl)methyl)-7-(trifluoromethoxy)-2-(3-(3,4,5-trifluorophenyl)allyl)-1,2,3,4-tetrahydro-5H-pyrido[4,3-b]indole-5-carboxamide]	0.2 µM	1.3 µM
N#Cc1ccc(/C=C/CN2CCc3c(c4ccc(OC(F)(F)F)cc4n3C(=O)NCc3ccnc(Cl)c3)C2)cc1 [Example 351, (E)-N-((2-chloropyridin-4-yl)methyl)-2-(3-(4-cyanophenyl)allyl)-7-(trifluoromethoxy)-1,2,3,4-tetrahydro-5H-pyrido[4,3-b]indole-5-carboxamide]	0.7 µM	32.3 µM
N#Cc1ccc(/C=C/CN2CCc3c(c4c(OC(F)(F)F)cccc4n3C(=O)NCc3ccnc(Cl)c3)C2)cc1 [Example 352, (E)-N-((2-chloropyridin-4-yl)methyl)-2-(3-(4-cyanophenyl)allyl)-9-(trifluoromethoxy)-1,2,3,4-tetrahydro-5H-pyrido[4,3-b]indole-5-carboxamide]	33 µM	5.7 µM
O=C(NCc1ccnc(Cl)c1)n1c2c(c3ccc(OC(F)(F)F)cc31)CN(C/C=C/c1ccc(Cl)cc1)CC2 [Example 353, (E)-2-(3-(4-chlorophenyl)allyl)-N-((2-chloropyridin-4-yl)methyl)-7-(trifluoromethoxy)-1,2,3,4-tetrahydro-5H-pyrido[4,3-b]indole-5-carboxamide]	1 µM	18.2 µM
O=C(NCc1ccnc(Cl)c1)n1c2c(c3c(OC(F)(F)F)cccc31)CN(C/C=C/c1ccc(Cl)cc1)CC2 [Example 354, (E)-2-(3-(4-chlorophenyl)allyl)-N-((2-chloropyridin-4-yl)methyl)-9-(trifluoromethoxy)-1,2,3,4-tetrahydro-5H-pyrido[4,3-b]indole-5-carboxamide]	57.4 µM	18.2 µM
O=C(NCc1ccnc(Cl)c1)n1c2c(c3ccc(OC(F)(F)F)cc31)CN(C/C=C/c1ccc(Cl)c(Cl)c1)CC2 [Example 355, (E)-N-((2-chloropyridin-4-yl)methyl)-2-(3-(3,4-dichlorophenyl)allyl)-7-(trifluoromethoxy)-1,2,3,4-tetrahydro-5H-pyrido[4,3-b]indole-5-carboxamide]	1 µM	69.1 µM
O=C(NCc1ccnc(Cl)c1)n1c2c(c3c(OC(F)(F)F)cccc31)CN(C/C=C/c1ccc(F)cc1)CC2 [Example 357, (E)-N-((2-chloropyridin-4-yl)methyl)-2-(3-(4-fluorophenyl)allyl)-9-(trifluoromethoxy)-1,2,3,4-tetrahydro-5H-pyrido[4,3-b]indole-5-carboxamide]	10 µM	3.3 µM
COc1ccc(/C=C/CN2CCc3c(c4ccc(OC(F)(F)F)cc4n3C(=O)NCc3ccnc(Cl)c3)C2)cc1 [Example 358, (E)-N-((2-chloropyridin-4-yl)methyl)-2-(3-(4-methoxyphenyl)allyl)-7-(trifluoromethoxy)-1,2,3,4-tetrahydro-5H-pyrido[4,3-b]indole-5-carboxamide]	1.3 µM	7.6 µM
COc1ccc(/C=C/CN2CCc3c(c4c(OC(F)(F)F)cccc4n3C(=O)NCc3ccnc(Cl)c3)C2)cc1 [Example 359, (E)-N-((2-chloropyridin-4-yl)methyl)-2-(3-(4-methoxyphenyl)allyl)-9-(trifluoromethoxy)-1,2,3,4-tetrahydro-5H-pyrido[4,3-b]indole-5-carboxamide]	3.3 µM	3.3 µM
O=C(NCc1ccnc(Cl)c1)n1c2c(c3ccc(OC(F)(F)F)cc31)CN(C/C=C/c1ccc(OC(F)(F)F)cc1)CC2 [Example 360, (E)-N-((2-chloropyridin-4-yl)methyl)-7-(trifluoromethoxy)-2-(3-(4-(trifluoro-methoxy)phenyl)allyl)-1,2,3,4-tetrahydro-5H-pyrido[4,3-b]indole-5-carboxamide]	7.7 µM	13.6 µM
O=C(NCc1ccnc(Cl)c1)n1c2c(c3c(OC(F)(F)F)cccc31)CN(C/C=C/c1ccc(OC(F)(F)F)cc1)CC2 [Example 361, (E)-N-((2-chloropyridin-4-yl)methyl)-9-(trifluoromethoxy)-2-(3-(4-(trifluoro-methoxy)phenyl)allyl)-1,2,3,4-tetrahydro-5H-pyrido[4,3-b]indole-5-carboxamide]	> 100 µM	57.4 µM
O=C(NCc1ccnc(Cl)c1)n1c2c(c3ccc(OC(F)(F)F)cc31)CN(C/C=C/c1ccc(C(F)(F)F)cc1)CC2 [Example 362, (E)-N-((2-chloropyridin-4-yl)methyl)-7-(trifluoromethoxy)-2-(3-(4-(trifluoro-methyl)phenyl)allyl)-1,2,3,4-tetrahydro-5H-pyrido[4,3-b]indole-5-carboxamide]	> 100 µM	31.5 µM
O=C(NCc1ccnc(Cl)c1)n1c2c(c3c(OC(F)(F)F)cccc31)CN(C/C=C/c1ccc(C(F)(F)F)cc1)CC2 [Example 363, (E)-N-((2-chloropyridin-4-yl)methyl)-9-(trifluoromethoxy)-2-(3-(4-(trifluoro-methyl)phenyl)allyl)-1,2,3,4-tetrahydro-5H-pyrido[4,3-b]indole-5-carboxamide]	> 100 µM	33 µM
O=C(NCc1ccnc(Cl)c1)n1c2c(c3ccc(OC(F)(F)F)cc31)CN(Cc1ccc3cc(Br)ccc3c1)CC2 [Example 364, 2-((6-bromonaphthalen-2-yl)methyl)-N-((2-chloropyridin-4-yl)methyl)-7-(trifluoromethoxy)-1,2,3,4-tetrahydro-5H-pyrido[4,3-b]indole-5-carboxamide]	> 100 µM	1.8 µM
O=C(NCc1ccnc(Cl)c1)n1c2c(c3ccc(OC(F)(F)F)cc31)CN(Cc1cc3ccc(Cl)cc3cn1)CC2 [Example 365, 2-((7-chloroisoquinolin-3-yl)methyl)-N-((2-chloropyridin-4-yl)methyl)-7-(trifluoromethoxy)-1,2,3,4-tetrahydro-5H-pyrido[4,3-b]indole-5-carboxamide]	> 100 µM	4.4 µM
O=C(NCc1ccnc(Cl)c1)n1c2c(c3ccc(OC(F)(F)F)cc31)CN(Cc1ccc3nc(Cl)ccc3c1)CC2 [Example 367, N-((2-chloropyridin-4-yl)methyl)-2-((2-chloroquinolin-6-yl)methyl)-7-(trifluoromethoxy)-1,2,3,4-tetrahydro-5H-pyrido[4,3-b]indole-5-carboxamide]	10 µM	> 100 µM
